In paper PMC10582582 (Saudi Pharmaceutical Journal : SPJ, 2023):

System: WI-38
Test: In vitro cytotoxicity against normal cell line WI-38
Type: cell-based
Settings: Homo sapiens, WI-38, read-out: IC50 WI38

Structure (SMILES)	IC50
CN(C)C/C=C/C(=O)Nc1cc2c(Nc3ccc(F)c(Cl)c3)ncnc2cc1O[C@H]1CCOC1 [Afatinib, reference compound]	49.5 ± 2.5 µM
CCN1CCC2(CC1)C/C(=N\N=C\c1ccc(N(C)C)cc1)c1ccccc1O2 [Compound 4c, 4-((E)-{(E)-[1′-Ethylspiro(chroman-2,4′-piperidin)-4-ylidene]hydrazono}methyl)-N,N-dimethylaniline]	55.3 ± 3.3 µM
CN1CCC2(CC1)C/C(=N\N=C\c1ccc(O)cc1)c1ccccc1O2 [Compound 4d, 4-((E)-{(E)-[1′-Methylspiro(chroman-2,4′-piperidin)-4-ylidene]hydrazono}methyl)phenol]	33.3 ± 2.3 µM
CN1CCC2(CC1)C/C(=N\N=C\c1ccc(Cl)cc1)c1ccccc1O2 [Compound 4a, (E)-4-[(E)-(4-Chlorobenzylidene)hydrazono]-1′-methylspiro(chroman-2,4′-piperidine)]	75.7 ± 4.3 µM
CN1CCC2(CC1)C/C(=N\N=C\c1ccc(N(C)C)cc1)c1ccccc1O2 [Compound 4b, N,N-Dimethyl-4-((E)-{(E)-[1′-methylspiro(chroman-2,4′-piperidin)-4-ylidene]hydrazono}methyl)aniline]	60.4 ± 3.7 µM
